Values quoted from earlier work in publication PMC12525602, “Identification of Selective α-Glucosidase Inhibitors via Virtual Screening with Machine Learning” (Molecules, 2025).

Tested on: α-glucosidase
Settings: activity label in the 300-compound modeling dataset (Table S5); 1 = active, 0 = inactive; cited from earlier work

activity, 1:
CCOC(=O)c1ccc(-n2c(/C=C3\OC(=O)c4c3cc(C)[nH]c4=O)ccc2CO)cc1 [compound 228], C[C@@H]1O[C@@H](O[C@H]2C(=O)c3c(O)cc(O)cc3O[C@@H]2c2ccc(O)c(O)c2)[C@H](O)[C@H](O)[C@H]1O [compound 229], O=[N+]([O-])c1ccc(-c2nnc(/N=C(/CSc3nnc4c(n3)[nH]c3ccccc34)c3ccc(-c4ccccc4)cc3)s2)cc1 [compound 230], O=c1c(O)c(-c2ccc(O)c(O)c2)oc2cc(O)ccc12 [compound 231]

Same assay, conditions: activity label of the 300-compound modeling dataset, Table S5; cited from earlier work

activity, 1:
Oc1cc(O)cc(-c2cc3cccc(Br)c3o2)c1 [compound 232], O=C1CC(/C=N/Nc2cccc(Br)c2)Oc2ccccc21 (centres unmarked) [compound 233], CC(C)(C)c1ccc(N/N=C/C2CC(=O)c3ccccc3O2)cc1 (centres unmarked) [compound 234], O=C1CC(/C=N/Nc2ccc(F)cc2)Oc2ccccc21 (centres unmarked) [compound 235], Clc1ncccc1CNc1cccc(-c2nc3ccccc3[nH]2)c1 [compound 237], Cc1ccc(C(=O)COc2c(I)cc(Cl)c3cccnc23)cc1 [compound 238], Cc1ccc(/C(CSc2nnc3c(n2)[nH]c2ccccc23)=N\c2nnc(-c3ccc([N+](=O)[O-])cc3)s2)cc1 [compound 239], O=C(COc1c(I)cc(Cl)c2cccnc12)c1ccc(Cl)cc1 [compound 241], O=C(COc1c(I)cc(Cl)c2cccnc12)c1ccc(-c2ccccc2)cc1 [compound 242], COc1ccccc1/C(CSc1nnc2c(n1)[nH]c1ccccc12)=N\c1nnc(-c2ccc(Cl)c(Cl)c2)s1 [compound 243], O=c1c(O)c(-c2ccc(O)cc2)oc2cc(O)cc(O)c12 [compound 244], O=C(/C=C/c1cc(F)c(O)c(F)c1)c1cccc2[nH]c(=O)oc12 [compound 245], O=C(/C=C/c1ccc(O)c(F)c1)c1cccc2[nH]c(=O)oc12 [compound 246], O=C(/C=C/c1ccc(O)cc1)c1cccc2[nH]c(=O)oc12 [compound 247], O=C(COc1c(I)cc(Cl)c2cccnc12)c1ccc([N+](=O)[O-])cc1 [compound 248], COc1ccc(/C(CSc2nnc3c(n2)[nH]c2ccccc23)=N\c2nnc(-c3ccc(Cl)c(Cl)c3)s2)cc1 [compound 249], O=C(N/N=C/C1CC(=O)c2ccccc2O1)c1ccc(O)cc1 (centres unmarked) [compound 250], N#Cc1cccc(N/N=C/C2CC(=O)c3ccccc3O2)c1 (centres unmarked) [compound 251], O=c1c(O)c(-c2ccc(O)cc2)oc2cc(O)ccc12 [compound 252], COc1cc(/C=N/N=C2\C(=O)Nc3ccccc32)ccc1OCc1cn(Cc2ccc(C)cc2)nn1 [compound 253], Brc1ccc(CNc2cccc(-c3nc4ccccc4[nH]3)c2)cn1 [compound 254], O=C1C(=NNc2nncs2)c2ccccc2N1Cc1ccc(Cl)cc1 [compound 255], O=C(COc1c(I)cc(Cl)c2cccnc12)c1ccc(Br)cc1 [compound 256], Cc1ccc(-c2cnc3ccccc3n2)cc1 [compound 257], CN(C)c1ccc(/C=N/CCc2ccc(O)cc2)cc1 [compound 258], O=C1Nc2ccccc2/C1=N/N=C/c1ccc(OCc2cn(Cc3ccccc3)nn2)cc1 [compound 259], Fc1cccc(CNc2cccc(-c3nc4ccccc4[nH]3)c2)c1 [compound 260], COc1cc(-c2nc3ccccc3[nH]2)ccc1OCC(=O)Nc1ccc(F)cc1 [compound 261], O=C1C(=NN=Cc2ccc(OCc3cn(Cc4ccc(F)cc4)nn3)cc2)c2ccccc2N1c1ccc(Br)cc1 [compound 262], Cc1ccccc1Cn1cc(COc2ccc(/C=N/N=C3\C(=O)Nc4ccccc43)cc2)nn1 [compound 263], COC(=O)Cn1c(=O)oc2c(C(=O)/C=C/c3cc(F)c(O)c(F)c3)cccc21 [compound 264], Brc1cccc(CNc2cccc(-c3nc4ccccc4[nH]3)c2)n1 [compound 265], COc1ccc2nc3cc(Cl)ccc3c(SCC(=O)NCc3cccc(Cl)c3)c2c1 [compound 266], Cc1cc(C)cc(Cn2cc(COc3ccc(-c4nc(-c5ccccc5)c(-c5ccccc5)[nH]4)cc3)nn2)c1 [compound 267], O=C(COc1c(I)cc(Cl)c2cccnc12)c1cccc(Br)c1 [compound 268], Oc1cccc(-c2nnc(/N=C(/CSc3nnc4c(n3)[nH]c3ccccc34)c3ccc(-c4ccccc4)cc3)s2)c1 [compound 269], COc1cccc(CNc2cccc(-c3nc4ccccc4[nH]3)c2)n1 [compound 270], O=C1Nc2ccccc2/C1=N/N=C/c1ccc(OCc2cn(Cc3ccc(F)cc3)nn2)cc1 [compound 271], Cn1ccnc1SC(=O)c1ccc(-c2ccccc2F)o1 [compound 272], O=C(/C=C/c1ccc(Cl)cc1)c1cc2ccccc2oc1=O [compound 273], O=C(/C=C/c1ccc(O)c(O)c1)c1cccc2[nH]c(=O)oc12 [compound 274], Brc1ccc(CNc2cccc(-c3nc4ccccc4[nH]3)c2)cc1 [compound 275], O=C(COc1c(I)cc(Cl)c2cccnc12)c1ccc(Cl)cc1Cl [compound 276], Cc1ccc(/C(CSc2nnc3c(n2)[nH]c2ccccc23)=N\c2nnc(-c3ccc(Cl)c(Cl)c3)s2)cc1 [compound 277], c1ccc(-c2cnc3ccccc3n2)cc1 [compound 278]

Same assay, conditions: activity label of the modeling dataset, sheet Table S5; 1 = active, 0 = inactive; cited from earlier work

activity, 1:
COc1ccc(/C=N/N=C(/C)c2ccc([N+](=O)[O-])cc2)cc1 [compound 279], CC(C)=CCn1c(=O)oc2c(C(=O)/C=C/c3cc(F)c(O)c(F)c3)cccc21 [compound 280], Cc1ccc(-c2cc(C(F)(F)F)nn2-c2ccc(S(=O)(=O)NC(=O)c3ccc(C)c([N+](=O)[O-])c3)cc2)cc1 [compound 281], Clc1ccc(-c2cnc3ccccc3n2)c(Cl)c1 [compound 283], COC(=O)Cn1c(=O)oc2c(C(=O)/C=C/c3ccc(O)c(F)c3)cccc21 [compound 284], CCC/C=N/N=C(/C)c1ccc([N+](=O)[O-])cc1 [compound 285], O=[N+]([O-])c1ccc(-c2cnc3ccccc3n2)cc1 [compound 286], COC(=O)Cn1c(=O)oc2c(C(=O)/C=C/c3ccc(O)cc3)cccc21 [compound 287], c1ccc(-c2ccc(-c3cnc4ccccc4n3)cc2)cc1 [compound 288], O=c1c(O)c(-c2ccc(O)c(O)c2)oc2cc(O)cc(O)c12 [compound 289], Clc1cccc(-c2cnc3ccccc3n2)c1 [compound 290], COc1ccc(/C=N/N=C(/C)c2ccc([N+](=O)[O-])cc2)c(OC)c1 [compound 291], CCOC(=O)c1c(SCC(=O)Nc2ccccc2)nnc(-c2ccccc2)c1-c1ccccc1 [compound 292], CC(C)=CCn1c(=O)oc2c(C(=O)/C=C/c3ccc(O)c(F)c3)cccc21 [compound 293], Cc1cc2ncc(-c3ccccc3)nc2cc1C [compound 294], Clc1ccc(-c2cnc3ccccc3n2)cc1Cl [compound 295], CCOC(=O)c1cc(-c2ccc(Br)cc2)n2nc3ccccc3c2n1 [compound 296], Cn1ccnc1SC(=O)c1ccc(-c2cccc(Cl)c2)o1 [compound 298], Cc1ccc(-n2cc(/C=N\NC(=O)Nc3ccccc3)c(-c3ccc([N+](=O)[O-])cc3)n2)cc1 [compound 299]
